Test system: exonuclease free Klenow fragment DNA polymerase I (EFK)
Conditions: 40 μM test compound alone or with 4 μM dNTPαS; 33P 15 mer primer / 24 mer template; one unit EFK; 37° C., 3 minutes
Procedure: Primer Extension Assays to Study the Incorporation of Triphosphate 5 by DNA Polymerases
A primer extension assay was used to evaluate the triphosphate 5 as a substrate for exonuclease free Klenow fragment DNA polymerase I (EFK). The assay used a ^33P 5′ end labelled 15 mer primer hybridised to a 24 mer template. The sequences of the primer and template are:
One picomole ^33P labelled primer was hybridised to 2 picomoles of template in ×2 Klenow buffer (100 mM Tris-HCl pH 7.5, 10 mM MgCl2., 10 mM 2-mercaptoethanol) To this was added either 4 μM dNTPαS or 40 μM (test compound 5c) or a mixture of 4 μM dNTPαS and 40 μM (test compound). One unit EFK and 20 mU inorganic pyrophosphatase were used per reaction. Primer alone, primer plus template plus enzyme controls were also carried out. The reactions were incubated at 37° C. for 3 minutes. Reactions were then stopped by the addition of formamide/EDTA stop solution. Reaction products were separated on a 20% polyacrylamide 7M urea gel and the product fragments sized by comparison with the labelled primer and the products of extensions in the presence of 4 μM dNTPαS after exposure to Kodak Biomax autoradiography film.

Cc1cc2c(nn1)NC(=O)N([C@H]1C[C@H](O)[C@@H](COP(=O)(O)OP(=O)(O)OP(=O)(O)O)O1)C2 [compound 5, 6-(β-D-2-Deoxyribofuranosyl)-5-hydro-3-methyl-8H-pyrimido[4,5-c][1,2]pyridazin-7-one-5′-triphosphate]
natural nucleotide in place of which the test compound is incorporated: incorporated in place of dTTP

Reference: patent publication US6664058B2, “Base analogues” (Amersham Biosciences UK Limited, priority 2000, dated 2003)
